According to ChEMBL document CHEMBL3885881, “DrugMatrix”:

Organism: Rattus norvegicus
Assay: DrugMatrix - Regimen: Daily Repeat
Assay type: toxicity, organism-based, Sprague-Dawley
Design: regimen Daily Repeat, gender Male, age 6-8 weeks
Details: in vivo, po, route oral GAVAGE, […]; for ABSOLUTE BASOPHIL / ABSOLUTE EOSINOPHIL / ABSOLUTE LYMPHOCYTE / ABSOLUTE SEGMENTED NEUTROPHIL / BASOPHIL / EOSINOPHIL / ERYTHROCYTE COUNT / HEMATOCRIT / HEMOGLOBIN / LEUKOCYTE COUNT / LYMPHOCYTE / MEAN CORPUSCULAR HEMOGLOBIN / MEAN CORPUSCULAR HEMOGLOBIN CONCENTRATION / MEAN CORPUSCULAR VOLUME / MONOCYTE / NEUTROPHIL / NUCLEATED RED BLOOD CELLS / PLATELET COUNT: tissue Blood; for ALANINE AMINOTRANSFERASE / ALBUMIN / ALKALINE PHOSPHATASE / ASPARTATE AMINOTRANSFERASE / BLOOD UREA NITROGEN / CARBON DIOXIDE / CHLORIDE / CHOLESTEROL / CREATINE PHOSPHOKINASE / CREATININE / GLUCOSE / LACTATE DEHYDROGENASE / LIPASE / PHOSPHORUS / POTASSIUM / SODIUM / TOTAL BILIRUBIN / TOTAL PROTEIN / URIC ACID: tissue Plasma
[1] = 15 mg/kg, 120 h, dose level Low, time 5 day
[2] = 1200 mg/kg, 72 h, dose level High, time 3 day
[3] = 1200 mg/kg, 120 h, dose level High, time 5 day

## CCC(C)(C)C(=O)O[C@H]1C[C@@H](C)C=C2C=C[C@H](C)[C@H](CC[C@@H]3C[C@@H](O)CC(=O)O3)[C@H]21 [SIMVASTATIN]
[1]
  ABSOLUTE BASOPHIL: 0 CELLS/uL
  ABSOLUTE EOSINOPHIL: 0 CELLS/uL
  ABSOLUTE LYMPHOCYTE: 6051 CELLS/uL
  ABSOLUTE SEGMENTED NEUTROPHIL: 802.33 CELLS/uL
  BASOPHIL: 0%
  EOSINOPHIL: 0%
  ERYTHROCYTE COUNT: 5.09 x10E6/uL
  HEMATOCRIT: 32.87%
  HEMOGLOBIN: 12.87 G/DL
  LEUKOCYTE COUNT: 6.93 x10E3/uL
  LYMPHOCYTE: 87.67%
  MEAN CORPUSCULAR HEMOGLOBIN: 25.33 pg
  MEAN CORPUSCULAR HEMOGLOBIN CONCENTRATION: 39.2 G/DL
  MEAN CORPUSCULAR VOLUME: 64.63 fL
  MONOCYTE: 1%
  NEUTROPHIL: 11.33%
  NUCLEATED RED BLOOD CELLS: 0 /100WBC
  PLATELET COUNT: 1251.33 x10E3/uL
  ALANINE AMINOTRANSFERASE: 57.67 u/L
  ALBUMIN: 4 G/DL
  ALKALINE PHOSPHATASE: 335.33 u/L
  ASPARTATE AMINOTRANSFERASE: 77.67 u/L
  BLOOD UREA NITROGEN: 14.67 mg/dL
  CARBON DIOXIDE: 30.67 mmol/L
  CHLORIDE: 99 MEQ/L
  CHOLESTEROL: 66.33 mg/dL
  CREATINE PHOSPHOKINASE: 168.67 u/L
  CREATININE: 0.17 mg/dL
  GLUCOSE: 178.67 mg/dL
  LACTATE DEHYDROGENASE: 64 u/L
  LIPASE: 9.33 u/L
  PHOSPHORUS: 11.6 mg/dL
  POTASSIUM: 5.71 MEQ/L
  SODIUM: 144.13 MEQ/L
  TOTAL BILIRUBIN: 0.1 mg/dL
  TOTAL PROTEIN: 5.6 G/DL
  URIC ACID: 0.67 mg/dL
[2]
  ABSOLUTE BASOPHIL: 0 CELLS/uL
  ABSOLUTE EOSINOPHIL: 0 CELLS/uL
  ABSOLUTE LYMPHOCYTE: 6224.67 CELLS/uL
  ABSOLUTE SEGMENTED NEUTROPHIL: 3273.67 CELLS/uL
  BASOPHIL: 0%
  EOSINOPHIL: 0%
  ERYTHROCYTE COUNT: 6.06 x10E6/uL
  HEMATOCRIT: 37.77%
  HEMOGLOBIN: 14.83 G/DL
  LEUKOCYTE COUNT: 9.57 x10E3/uL
  LYMPHOCYTE: 66%
  MEAN CORPUSCULAR HEMOGLOBIN: 24.57 pg
  MEAN CORPUSCULAR HEMOGLOBIN CONCENTRATION: 39.27 G/DL
  MEAN CORPUSCULAR VOLUME: 62.5 fL
  MONOCYTE: 0.67%
  NEUTROPHIL: 33.33%
  NUCLEATED RED BLOOD CELLS: 0 /100WBC
  PLATELET COUNT: 1143.67 x10E3/uL
  ALANINE AMINOTRANSFERASE: 323.67 u/L
  ALBUMIN: 4.43 G/DL
  ALKALINE PHOSPHATASE: 403.67 u/L
  ASPARTATE AMINOTRANSFERASE: 291.33 u/L
  BLOOD UREA NITROGEN: 12 mg/dL
  CARBON DIOXIDE: 33 mmol/L
  CHLORIDE: 97.67 MEQ/L
  CHOLESTEROL: 46.33 mg/dL
  CREATINE PHOSPHOKINASE: 1429 u/L
  CREATININE: 0.1 mg/dL
  GLUCOSE: 174.33 mg/dL
  LACTATE DEHYDROGENASE: 212.33 u/L
  LIPASE: 26 u/L
  PHOSPHORUS: 7.2 mg/dL
  POTASSIUM: 5.3 MEQ/L
  SODIUM: 144.93 MEQ/L
  TOTAL BILIRUBIN: 0.17 mg/dL
  TOTAL PROTEIN: 5.67 G/DL
  URIC ACID: 0.5 mg/dL
[3]
  ABSOLUTE BASOPHIL: 0 CELLS/uL
  ABSOLUTE EOSINOPHIL: 0 CELLS/uL
  ABSOLUTE LYMPHOCYTE: 2769 CELLS/uL
  ABSOLUTE SEGMENTED NEUTROPHIL: 4331 CELLS/uL
  BASOPHIL: 0%
  EOSINOPHIL: 0%
  ERYTHROCYTE COUNT: 6.93 x10E6/uL
  HEMATOCRIT: 43.8%
  HEMOGLOBIN: 17.4 G/DL
  LEUKOCYTE COUNT: 7.1 x10E3/uL
  LYMPHOCYTE: 39%
  MEAN CORPUSCULAR HEMOGLOBIN: 25.1 pg
  MEAN CORPUSCULAR HEMOGLOBIN CONCENTRATION: 39.7 G/DL
  MEAN CORPUSCULAR VOLUME: 63.2 fL
  MONOCYTE: 0%
  NEUTROPHIL: 61%
  NUCLEATED RED BLOOD CELLS: 0 /100WBC
  PLATELET COUNT: 1317 x10E3/uL
  ALANINE AMINOTRANSFERASE: 285 u/L
  ALBUMIN: 4.7 G/DL
  ALKALINE PHOSPHATASE: 273 u/L
  ASPARTATE AMINOTRANSFERASE: 367 u/L
  BLOOD UREA NITROGEN: 37 mg/dL
  CARBON DIOXIDE: 35 mmol/L
  CHLORIDE: 82 MEQ/L
  CHOLESTEROL: 103 mg/dL
  CREATINE PHOSPHOKINASE: 1419 u/L
  CREATININE: 0.1 mg/dL
  GLUCOSE: 205 mg/dL
  LACTATE DEHYDROGENASE: 510 u/L
  LIPASE: 55 u/L
  PHOSPHORUS: 9 mg/dL
  POTASSIUM: 4.84 MEQ/L
  SODIUM: 136.7 MEQ/L
  TOTAL BILIRUBIN: 0.2 mg/dL
  TOTAL PROTEIN: 6.1 G/DL
  URIC ACID: 0.6 mg/dL
